From patent publication US20230295119A1, “SUBSTITUTED PYRIDINES FOR THE TREATMENT OF INFLAMMATORY DISEASES” (GOSSAMER BIO SERVICES, INC., priority 2020, published 2023)

How the values were obtained:
human JAK2 = human JAK2 (Homo sapiens (Human), UniProt O60674); experiment: JAK2 TR-FRET kinase assay; format: biochemical; settings: JAK2 0.025 nM
human JAK1 = human JAK1 (Homo sapiens (Human), UniProt P23458); experiment: JAK1 TR-FRET kinase assay; format: biochemical; settings: TR-FRET, JAK1 2.5 nM
human JAK1, sequence (P23458 whole entry): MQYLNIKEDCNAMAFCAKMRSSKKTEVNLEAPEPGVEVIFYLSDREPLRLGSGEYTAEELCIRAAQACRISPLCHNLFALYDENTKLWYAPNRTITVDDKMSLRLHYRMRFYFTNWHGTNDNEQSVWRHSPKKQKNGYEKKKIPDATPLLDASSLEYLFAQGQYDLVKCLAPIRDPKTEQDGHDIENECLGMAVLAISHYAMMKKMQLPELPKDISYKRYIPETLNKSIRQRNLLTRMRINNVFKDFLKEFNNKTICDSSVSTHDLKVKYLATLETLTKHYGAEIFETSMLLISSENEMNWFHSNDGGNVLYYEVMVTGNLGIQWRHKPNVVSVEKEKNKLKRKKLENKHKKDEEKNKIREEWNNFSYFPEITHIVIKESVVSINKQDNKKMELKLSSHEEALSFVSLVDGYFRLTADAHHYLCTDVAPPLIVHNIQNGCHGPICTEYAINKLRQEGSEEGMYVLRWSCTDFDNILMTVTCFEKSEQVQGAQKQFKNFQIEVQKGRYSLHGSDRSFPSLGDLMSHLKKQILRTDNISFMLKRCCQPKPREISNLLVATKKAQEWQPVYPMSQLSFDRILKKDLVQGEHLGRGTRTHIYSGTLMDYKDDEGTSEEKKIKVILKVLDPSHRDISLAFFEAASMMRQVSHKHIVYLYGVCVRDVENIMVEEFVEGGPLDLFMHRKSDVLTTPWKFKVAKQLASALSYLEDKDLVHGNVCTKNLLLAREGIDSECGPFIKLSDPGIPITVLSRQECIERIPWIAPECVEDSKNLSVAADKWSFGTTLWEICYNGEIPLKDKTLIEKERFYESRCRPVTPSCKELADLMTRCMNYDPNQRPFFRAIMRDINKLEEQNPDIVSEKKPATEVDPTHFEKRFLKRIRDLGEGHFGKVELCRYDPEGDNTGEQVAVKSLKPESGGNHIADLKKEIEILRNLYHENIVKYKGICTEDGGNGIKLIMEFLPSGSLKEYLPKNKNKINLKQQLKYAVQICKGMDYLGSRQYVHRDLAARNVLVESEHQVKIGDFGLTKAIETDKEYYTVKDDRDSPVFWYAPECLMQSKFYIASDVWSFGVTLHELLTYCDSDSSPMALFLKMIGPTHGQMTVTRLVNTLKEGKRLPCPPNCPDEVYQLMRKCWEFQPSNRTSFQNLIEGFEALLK

human JAK3 = human JAK3 (Homo sapiens (Human), UniProt P52333); experiment: JAK3 TR-FRET kinase assay; format: biochemical; settings: JAK3 0.0125 nM
human JAK3, sequence (P52333 whole entry, the tested form may be a part): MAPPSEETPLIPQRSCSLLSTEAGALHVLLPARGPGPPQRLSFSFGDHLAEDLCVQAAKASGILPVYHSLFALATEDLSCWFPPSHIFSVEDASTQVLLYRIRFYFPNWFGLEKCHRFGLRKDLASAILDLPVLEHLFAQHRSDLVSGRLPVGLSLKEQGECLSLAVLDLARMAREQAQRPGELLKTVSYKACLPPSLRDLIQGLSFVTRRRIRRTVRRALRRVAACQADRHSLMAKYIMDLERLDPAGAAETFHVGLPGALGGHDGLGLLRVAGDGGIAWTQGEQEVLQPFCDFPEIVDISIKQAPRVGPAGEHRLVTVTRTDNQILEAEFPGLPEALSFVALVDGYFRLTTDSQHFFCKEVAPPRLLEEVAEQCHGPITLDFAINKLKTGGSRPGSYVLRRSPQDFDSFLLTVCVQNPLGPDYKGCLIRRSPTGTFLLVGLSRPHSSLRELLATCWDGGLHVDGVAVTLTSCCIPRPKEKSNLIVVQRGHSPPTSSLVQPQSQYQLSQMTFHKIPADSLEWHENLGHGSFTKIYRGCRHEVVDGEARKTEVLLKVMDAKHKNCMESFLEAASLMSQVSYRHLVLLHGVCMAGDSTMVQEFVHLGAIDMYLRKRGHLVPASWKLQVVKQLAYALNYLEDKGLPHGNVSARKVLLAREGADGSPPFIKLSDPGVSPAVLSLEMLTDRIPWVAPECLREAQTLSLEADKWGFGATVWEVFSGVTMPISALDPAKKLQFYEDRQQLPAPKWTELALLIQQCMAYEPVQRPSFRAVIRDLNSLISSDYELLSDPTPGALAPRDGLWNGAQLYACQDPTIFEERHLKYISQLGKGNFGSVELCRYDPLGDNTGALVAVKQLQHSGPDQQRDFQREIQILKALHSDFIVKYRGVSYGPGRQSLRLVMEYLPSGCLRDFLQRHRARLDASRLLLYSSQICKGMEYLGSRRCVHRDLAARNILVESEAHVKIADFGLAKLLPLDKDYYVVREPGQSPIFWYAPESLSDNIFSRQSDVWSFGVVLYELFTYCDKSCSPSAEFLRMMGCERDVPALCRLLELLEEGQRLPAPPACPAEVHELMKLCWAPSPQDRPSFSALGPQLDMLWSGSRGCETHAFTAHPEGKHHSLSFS

TYK2 JH2 domain = TYK2 JH2 domain (Homo sapiens (Human), UniProt P29597); experiment: TYK2 JH2 NanoBRET assay; format: binding; settings: Table 20, read-out: TYK2 IC50
TYK2 JH2 domain, sequence (P29597 589-875): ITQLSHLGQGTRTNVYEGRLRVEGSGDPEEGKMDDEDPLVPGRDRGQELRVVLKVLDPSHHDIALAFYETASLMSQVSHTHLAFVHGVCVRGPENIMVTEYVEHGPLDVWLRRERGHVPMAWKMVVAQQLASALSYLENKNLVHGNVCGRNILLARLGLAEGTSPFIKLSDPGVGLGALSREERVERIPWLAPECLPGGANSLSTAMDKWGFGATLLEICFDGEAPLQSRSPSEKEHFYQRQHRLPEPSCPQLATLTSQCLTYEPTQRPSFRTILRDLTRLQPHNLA
How it was run: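 HEK293T cells transiently expressing NanoLuc-TYK2 JH2 fusion, incubated 2 h with compound and NanoBRET K10 tracer (0.5 µM final). Target engagement read as acceptor/donor BRET ratio after Nano-Glo substrate plus extracellular NanoLuc inhibitor.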

human JAK2, sequence (O60674 whole entry): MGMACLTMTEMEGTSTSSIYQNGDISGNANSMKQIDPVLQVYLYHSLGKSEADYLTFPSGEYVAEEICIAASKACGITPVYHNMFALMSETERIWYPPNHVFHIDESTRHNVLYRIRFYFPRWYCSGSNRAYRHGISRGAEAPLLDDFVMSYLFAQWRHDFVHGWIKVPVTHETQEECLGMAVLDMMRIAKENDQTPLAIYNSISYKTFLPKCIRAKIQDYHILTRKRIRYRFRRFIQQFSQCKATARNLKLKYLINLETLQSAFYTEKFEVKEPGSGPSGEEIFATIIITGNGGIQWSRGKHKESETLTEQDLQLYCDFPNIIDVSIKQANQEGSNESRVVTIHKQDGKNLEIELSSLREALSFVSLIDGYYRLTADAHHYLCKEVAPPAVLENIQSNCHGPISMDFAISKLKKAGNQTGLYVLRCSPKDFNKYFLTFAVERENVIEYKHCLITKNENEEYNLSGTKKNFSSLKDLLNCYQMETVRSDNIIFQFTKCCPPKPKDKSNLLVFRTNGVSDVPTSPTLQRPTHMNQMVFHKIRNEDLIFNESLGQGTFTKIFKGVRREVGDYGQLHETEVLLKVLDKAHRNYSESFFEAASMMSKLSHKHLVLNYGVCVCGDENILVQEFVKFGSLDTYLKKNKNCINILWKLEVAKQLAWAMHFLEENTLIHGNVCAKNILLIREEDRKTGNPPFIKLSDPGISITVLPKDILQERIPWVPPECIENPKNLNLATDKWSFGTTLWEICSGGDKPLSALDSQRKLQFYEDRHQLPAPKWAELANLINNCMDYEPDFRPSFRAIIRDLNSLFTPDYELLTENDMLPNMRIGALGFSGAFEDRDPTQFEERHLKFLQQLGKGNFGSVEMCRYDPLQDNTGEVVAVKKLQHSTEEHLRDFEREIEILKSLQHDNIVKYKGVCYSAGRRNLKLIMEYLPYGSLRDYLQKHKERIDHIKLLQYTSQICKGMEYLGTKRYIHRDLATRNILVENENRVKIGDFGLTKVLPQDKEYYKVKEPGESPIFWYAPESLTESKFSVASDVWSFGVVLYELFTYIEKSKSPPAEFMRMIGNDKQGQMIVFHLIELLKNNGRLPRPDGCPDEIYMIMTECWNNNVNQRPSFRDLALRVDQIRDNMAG

Structure (SMILES) | IC50 (human JAK2) | IC50 (human JAK1) | IC50 (human JAK3) | IC50 (TYK2 JH2 domain)
CCC(=O)c1cnc(Nc2ccc(CN(C)C3CC3)cn2)cc1Nc1cccc(-c2ncn(C)n2)c1OC [Compound 9R] | ≥ 500 nM | ≥ 500 nM | ≥ 500 nM | 5 to 50 nM
CCC(=O)c1cnc(Nc2cnc(CN(C)C)cn2)cc1Nc1cccc(-c2ncn(C)n2)c1OC [Compound 9SSS] | ≥ 500 nM | ≥ 500 nM | ≥ 500 nM | < 5 nM
CCC(=O)c1cnc(Nc2ccc(CS(C)(=O)=O)nn2)cc1Nc1cccc(-c2ncn(C)n2)c1OC [Compound 13T] | ≥ 500 nM | ≥ 500 nM | ≥ 500 nM | 5 to 50 nM
CCC(=O)c1cnc(Nc2ccc(S(=O)(=O)CC)cn2)cc1Nc1cccc(-c2ncn(C)n2)c1OC [Compound 13G] | ≥ 500 nM | ≥ 500 nM | ≥ 500 nM | < 5 nM
CCC(=O)c1cnc(Nc2ccc(S(C)(=O)=O)cn2)cc1Nc1ccc(CO)cc1OC [Compound 13X] | 50 to 500 nM | ≥ 500 nM | 50 to 500 nM | 50 to 500 nM
CCC(=O)c1cnc(NC(=O)C2CC2c2cnn(C)c2)cc1Nc1cccc(-c2ncn(C)n2)c1OC (stereo not shown) [Compound 22A, N-(4-((2-methoxy-3-(1-methyl-1H-1,2,4-tliazol-3-yl)phenyl)amino)-5-propionylpyridin-2-yl)-2-(1-methyl-1H-pyrazol-4-yl)cyclopropane-1-carboxamide] | ≥ 500 nM | ≥ 500 nM | ≥ 500 nM | 5 to 50 nM
CCC(=O)c1cnc(Nc2cnc(O[C@H]3CN(C)C[C@@H]3F)cn2)cc1Nc1cccc(-c2ncn(C)n2)c1OC [Compound 18AAA] | ≥ 500 nM | ≥ 500 nM | ≥ 500 nM | 5 to 50 nM
CCC(=O)c1cnc(Nc2ccc(O[C@@H]3CCOC3)c(C)n2)cc1Nc1cccc(-c2ncn(C)n2)c1OC [Compound 18AAAA] | 50 to 500 nM | ≥ 500 nM | 50 to 500 nM | < 5 nM
CCC(=O)c1cnc(Nc2cnc(O[C@@H]3CCCN(C)C3)cn2)cc1Nc1cccc(-c2ncn(C)n2)c1OC [Compound 18PPP] | ≥ 500 nM | ≥ 500 nM | ≥ 500 nM | 5 to 50 nM
CCC(=O)c1cnc(Nc2ccc(CN3C4COCC3C4)cn2)cc1Nc1cccc(-c2ncn(C)n2)c1OC [Compound 9XX] | 50 to 500 nM | ≥ 500 nM | 50 to 500 nM | < 5 nM
CCC(=O)c1cnc(Nc2ncc(S(C)(=O)=O)cc2F)cc1Nc1cccc(-c2ncn(C)n2)c1OC [Compound 13Z] | ≥ 500 nM | ≥ 500 nM | ≥ 500 nM | 50 to 500 nM
CCC(=O)c1cnc(Nc2ccc(C(C)(C)NC)nn2)cc1Nc1cccc(-c2ncn(C)n2)c1OC [Compound 9MMM] | ≥ 500 nM | ≥ 500 nM | ≥ 500 nM | 5 to 50 nM
CCC(=O)c1cnc(Nc2ccc(CN(C)CC(F)(F)F)cn2)cc1Nc1cccc(-c2ncn(C)n2)c1OC [Compound 9X] | ≥ 500 nM | ≥ 500 nM | ≥ 500 nM | 5 to 50 nM
CCC(=O)c1cnc(Nc2cnc(OCCN3CCOCC3)cn2)cc1Nc1cccc(-c2ncn(C)n2)c1OC [Compound 18GGG] | ≥ 500 nM | ≥ 500 nM | ≥ 500 nM | 5 to 50 nM
CCC(=O)c1cnc(Nc2cnc(O[C@H]3CCCN(C)C3)cn2)cc1Nc1cccc(-c2ncn(C)n2)c1OC [Compound 18QQQ] | ≥ 500 nM | ≥ 500 nM | ≥ 500 nM | 5 to 50 nM
CCC(=O)c1cnc(Nc2cnc(O[C@H]3CCN(C)C[C@@H]3F)cn2)cc1Nc1cccc(-c2ncn(C)n2)c1OC [Compound 18TTT] | ≥ 500 nM | ≥ 500 nM | ≥ 500 nM | 5 to 50 nM
CCC(=O)c1cnc(Nc2ccc(S(C)(=O)=O)cn2)cc1Nc1cccc(CO)c1OC [Compound 13P] | ≥ 500 nM | ≥ 500 nM | 50 to 500 nM | 5 to 50 nM
CCC(=O)c1cnc(Nc2ccc(CN(C)C)cn2)cc1Nc1cc(F)cc(-c2ncn(C)n2)c1OC [Compound 9E] | ≥ 500 nM | ≥ 500 nM | ≥ 500 nM | < 5 nM
CCC(=O)c1cnc(Nc2ccc(CS(C)(=O)=O)cn2)cc1Nc1nccc(-c2ncn(C)n2)c1OC [Compound 13M] | 50 to 500 nM | ≥ 500 nM | ≥ 500 nM | < 5 nM

The remaining lines, values ahead:

IC50 (human JAK2) | IC50 (human JAK1) | IC50 (human JAK3) | IC50 (TYK2 JH2 domain) | Structure (SMILES)
≥ 500 nM | ≥ 500 nM | ≥ 500 nM | 5 to 50 nM | CCC(=O)c1cnc(Nc2cnc(OCCN3CC(F)C3)cn2)cc1Nc1cccc(-c2ncn(C)n2)c1OC [Compound 18PP]
≥ 500 nM | ≥ 500 nM | ≥ 500 nM | < 5 nM | CCC(=O)c1cnc(Nc2cc(-c3cn(C)cn3)ccn2)cc1Nc1cccc(-c2ncn(C)n2)c1OC [Compound 15E]
≥ 500 nM | ≥ 500 nM | ≥ 500 nM | < 5 nM | CCC(=O)c1cnc(Nc2ccc(-n3ccnc3)cn2)cc1Nc1cccc(-c2ncn(C)n2)c1OC [Compound 15I]
≥ 500 nM | ≥ 500 nM | ≥ 500 nM | < 5 nM | CCC(=O)c1cnc(Nc2cc(C)n([C@H]3C[C@@H](OC)C3)n2)cc1Nc1cccc(-c2ncn(C)n2)c1OC [Compound 21EE]
≥ 500 nM | ≥ 500 nM | ≥ 500 nM | < 5 nM | CCC(=O)c1cnc(Nc2cc3c(cn2)B(O)OC3)cc1Nc1cccc(-c2ncn(C)n2)c1OC [Compound 15CC]
≥ 500 nM | ≥ 500 nM | ≥ 500 nM | 5 to 50 nM | COc1c(Nc2cc(Nc3ccc(-c4ncn(C)n4)cn3)ncc2C(=O)C2CC2)cccc1-c1ncn(C)n1 [Compound 15N]
≥ 500 nM | ≥ 500 nM | 50 to 500 nM | 5 to 50 nM | CCC(=O)c1cnc(Nc2ccn(CCC#N)n2)cc1Nc1cccc(-c2ncn(C)n2)c1OC [Compound 21M]
≥ 500 nM | ≥ 500 nM | ≥ 500 nM | 5 to 50 nM | CCC(=O)c1cnc(Nc2ccc(O[C@@H]3CCN(C)C3)nn2)cc1Nc1cccc(-c2ncn(C)n2)c1OC [Compound 18FF]
≥ 500 nM | ≥ 500 nM | ≥ 500 nM | ≥ 500 nM | CCC(=O)c1cnc(NC(=O)[C@@H]2C[C@H]2CC#N)cc1Nc1cccc(-c2ncn(C)n2)c1OC [Compound 22L]
≥ 500 nM | ≥ 500 nM | ≥ 500 nM | < 5 nM | CCC(=O)c1cnc(Nc2cnc(O[C@H]3CCN(C)C3)cn2)cc1Nc1cccc(-c2ncn(C)n2)c1OC [Compound 18TT]
≥ 500 nM | ≥ 500 nM | ≥ 500 nM | 5 to 50 nM | CCC(=O)c1cnc(Nc2cnc(C(F)(F)CO)cn2)cc1Nc1cccc(-c2ncn(C)n2)c1OC [Compound 19D]
≥ 500 nM | ≥ 500 nM | ≥ 500 nM | 5 to 50 nM | CCC(=O)c1cnc(Nc2cnc(C(F)(F)CN(C)C)cn2)cc1Nc1cccc(-c2ncn(C)n2)c1OC [Compound 19C]
